Literature values in US20020103139A1, “Solid self-emulsifying controlled release drug delivery system composition for enhanced delivery of water insoluble phytosterols and other hydrophobic natural compounds for body weight and cholestrol level control” (priority 2000, published 2002).

Experiments:
[1] = treated patients versus placebo
[2] = doses of 700 and 300 mg

| Compound | average weight lost more than with placebo [1] | difference in cholesterol reduction between doses [2] |
| --- | --- | --- |
| CCN[C@@H](C)Cc1cccc(C(F)(F)F)c1 [dexfenfluramine] | 5 pounds | – |
| CCNC(C)Cc1cccc(C(F)(F)F)c1 (stereo not drawn) [fenfluramine] | 5 pounds | – |
| CC[C@H](CC[C@@H](C)[C@H]1CC[C@H]2[C@@H]3CC[C@H]4C[C@@H](O)CC[C@]4(C)[C@H]3CC[C@]12C)C(C)C [sitostanol] | – | No significant difference |
